Experimental data published in patent EP4786454A1, “HETEROARYL DERIVATIVE AND USE THEREOF” (priority 2023, dated 2025).

Assays:
[1] = Plasma protein binding rate, equilibrium dialysis (dog plasma); type: in vitro ADME, beagle dogs; settings: d (beagle dog plasma), dialysis 4 hours at 37 °C, read-out: Unbound PPB%
Method: The protein binding rates of the compounds in the plasma of CD-1 mice, Sprague-Dawley rats, beagle dogs, cynomolgus monkeys, and human were determined using equilibrium dialysis method.
Commercially available plasma, dual-layer dialysis membrane, and equilibrium dialysis device.
The dual-layer dialysis membrane was soaked in ultrapure water for about 1 hour, removed and then divided into two parts. It was then soaked in an ethanol:water (20:80, v:v) solution for 20 minutes or placed at 2 to 8 °C, and it was valid for 1 month. Before starting the assay, the dialysis membrane was rinsed twice with ultrapure water and then soaked in ultrapure water for another 20 minutes for later use.
On the day of assay, the frozen plasma of CD-1 mice, Sprague-Dawley rats, beagle dogs, cynomolgus monkeys, and human was thawed in running cold tap water. After the plasma was completely thawed, the plasma was centrifuged at 3220×g for 5 minutes, and the suspended substances and precipitates in it were removed. The pH of the plasma was determined. The plasma with a pH in the range of 7.4 ± 0.1 was directly used, or the plasma with a pH in the range of 7.4 ± 0.1 after an adjustment with 1% phosphoric acid or 1M sodium hydroxide was used.
Preparation process of plasma samples: 597 µL of blank plasma from each of the above five species was taken, respectively. 3 µL of a compound or warfarin working solution was added, and the mixture was mixed thoroughly to give a plasma sample with a compound concentration of 2 µM and a warfarin concentration of 2 µM (n=1). The concentration of the organic phase DMSO was 0.5%. The sample was thoroughly mixed before proceeding to the next step.
Preparation process of T0 samples: 50 µL of a plasma sample containing the compound and warfarin was transferred to a sample receiving plate (n=3), and 50 µL of blank PBS was immediately added. Then, 500 µL of stop solution was added to the T0 sample of the compound and warfarin, and the mixture was stored at 2 to 8 °C, waiting to be processed later together with other dialysis-processed samples.
Dialysis process of plasma samples: 100 µL of a compound (2 µM) and warfarin (2 µM) plasma sample was added to the donor of each dialysis well (n=3), and 100 µL of blank PBS was added to the corresponding receiver of the dialysis well. The dialysis plate was placed in a 5% CO2 incubator, and incubated at 37 °C with shaking at approximately 100 rpm for 4 hours.
After the dialysis was completed, 50 µL of dialysis-processed PBS sample and dialysis-processed plasma sample (n=3) were transferred to a new 96-well plate (sample receiving plate). The corresponding volume of the corresponding blank plasma or PBS was added to the sample to make the final volume of each sample well 100 µL, with a plasma to PBS volume ratio of 1:1. All the samples were analyzed by LC-MS/MS after protein precipitation.
The formulas for calculating the unbound fraction (%Unbound), bound fraction (%Bound) and recovery fraction (%Recovery) of a compound are as follows: %Unbound = 100 ×F / T %Bound = 100 - %Unbound %Recovery = 100 ×(F + T)/ T0 wherein F is the concentration of the compound at the receiver of dialysis; T is the concentration of the compound at the supply end of dialysis; and T0 is the concentration of the compound in the plasma at time zero.

[2] = Stability in liver microsomes (rat); type: in vitro ADME, Sprague-Dawley (SD) rats; settings: r (SD rat liver microsomes), 0.5 mg/mL, read-out: MMS Clint
Method: (§1) The purpose of this study was to evaluate the phase I metabolic stability of the assay sample in liver microsomes from CD-1 mice, Sprague-Dawley (SD) rats, beagle dogs, cynomolgus monkeys, and human.
(§2) The animal and human liver microsomes used in this assay system were purchased from Xenotech, Corning, or other qualified suppliers.
(§3) Preparation of buffer: 73.21 g of potassium phosphate dibasic trihydrate and 10.78 g of potassium dihydrogen phosphate were dissolved in 4000 mL of ultrapure water. The pH of the solution was adjusted to the range of 7.40 ± 0.10 using 10.0% phosphoric acid or 1.00 M potassium hydroxide. Its final concentration was 100 mM.
(§4) Preparation of working solutions: An assay sample powder was prepared into a 10.0 mM stock solution with DMSO, and then further diluted with a suitable organic solvent. The control compounds testosterone, diclofenac, and propafenone were prepared into 10.0 mM stock solutions using DMSO, and then further diluted with a suitable organic solvent.
(§5) Preparation of liver microsome solution: Microsomes of various species were diluted with 100 mM potassium phosphate buffer to a working solution of 0.56 mg/mL. The final concentration of microsomes in the reaction system was 0.500 mg/mL. Detailed preparation procedures were described in the experimental records.
(§6) Preparation of reduced nicotinamide adenine dinucleotide phosphate (NADPH) solution: An appropriate amount of reduced nicotinamide adenine dinucleotide phosphate was dissolved in magnesium chloride solution, and the mixture was shaken to mix well. The final concentrations in the reaction system were 1.00 mM NADPH and 1.00 mM magnesium chloride, respectively. Detailed preparation procedures were described in the experimental records.
(§7) Preparation of stop solution: The stop solution was prepared using acetonitrile containing internal standards (tolbutamide and labetalol). The prepared stop solution was stored at 2.0 to 8.0 °C in a refrigerator. Detailed preparation procedures were described in the experimental records. […]

[3] = Stability in liver microsomes (mouse); type: in vitro ADME, CD-1 mice; settings: m (CD-1 mouse liver microsomes), 0.5 mg/mL, read-out: MMS Clint
Method: as §1, §2, §3, §4, §5, §6, §7

SMILES: CC(C)(C)CC(=O)Nc1nc2c(F)cc(C#N)cn2c1C1=CCCC1 [Compound 3]
- fraction unbound at 4 h, 2 µM [1]: 0.203
- CLint scaled at 1 µM [2]: 123 mL/min/kg
- CLint scaled at 1 µM [3]: 103 mL/min/kg

SMILES: CC(C)(C)CC(=O)Nc1nc2c(F)cc(C#N)cn2c1-c1ccc(OC(F)(F)F)cc1 [Compound 1]
- fraction unbound at 4 h, 2 µM [1]: 0.046
- CLint scaled at 1 µM [2]: 193 mL/min/kg
- CLint scaled at 1 µM [3]: 220 mL/min/kg

SMILES: CC(C)(C)CC(=O)Nc1nc2c(F)cc(C#N)cn2c1C12CC(C1)C2 [Compound 5]
- fraction unbound at 4 h, 2 µM [1]: 0.278
- CLint scaled at 1 µM [2]: < 17 mL/min/kg
- CLint scaled at 1 µM [3]: < 38 mL/min/kg
